Measured values reported in ChEMBL document CHEMBL1201862, “PubChem BioAssay data set” (2004).
Calls of active or inactive are those of the source.

Key:
[1] = target: T1, Estrogen receptor (Homo sapiens, UniProt P03372);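 also: potency for inhibiting coactivator peptide recruitment to the receptor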
T1 sequence (P03372 whole entry): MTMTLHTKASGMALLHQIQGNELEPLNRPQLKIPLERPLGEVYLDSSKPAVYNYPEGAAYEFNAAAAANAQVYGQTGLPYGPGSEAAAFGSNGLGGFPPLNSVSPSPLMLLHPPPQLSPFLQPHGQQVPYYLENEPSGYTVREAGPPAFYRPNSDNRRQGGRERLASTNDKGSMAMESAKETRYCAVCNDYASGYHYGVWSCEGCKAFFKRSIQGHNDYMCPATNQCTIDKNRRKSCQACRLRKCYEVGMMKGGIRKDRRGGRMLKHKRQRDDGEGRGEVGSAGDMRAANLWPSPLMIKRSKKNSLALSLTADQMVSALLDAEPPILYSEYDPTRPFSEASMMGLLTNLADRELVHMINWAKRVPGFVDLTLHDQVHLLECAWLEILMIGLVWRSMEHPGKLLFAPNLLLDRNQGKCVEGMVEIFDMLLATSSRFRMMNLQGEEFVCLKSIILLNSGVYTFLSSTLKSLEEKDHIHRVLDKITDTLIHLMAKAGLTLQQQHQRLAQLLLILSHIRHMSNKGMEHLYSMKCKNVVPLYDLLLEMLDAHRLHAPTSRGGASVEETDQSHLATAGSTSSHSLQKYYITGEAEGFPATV

[2] = target: T2, Endoribonuclease toxin MazF (Escherichia coli K-12, UniProt P0AE70); test: MazF toxin RNase activators, dose response, biochemical, fluorescence, single-stranded RNA substrate, uHTS hits (AID 588481); format: functional
T2 sequence (P0AE70 whole entry): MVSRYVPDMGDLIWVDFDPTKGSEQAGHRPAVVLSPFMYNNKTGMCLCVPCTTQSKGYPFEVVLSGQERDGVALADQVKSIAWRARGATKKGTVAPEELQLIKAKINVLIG

[3] = target: T2, Endoribonuclease toxin MazF; test: fluorescent RNA oligo signal without MazF, dose response, counter-screen for MazEF activator project, biochemical, fluorescence, single-stranded RNase substrate (AID 588502); format: functional
[4] = target: Genome polyprotein (dengue virus type 2, UniProt P29990); test: Dengue-2 NS5 methyltransferase inhibitors, primary screen, biochemical, confirmation dose response (AID 588689); format: functional
[5] = target: Cytochrome P450 2C19 (Homo sapiens, UniProt P33261); test: Cytochrome panel assay with activity outcomes. Panel member name: p450-cyp2c19 Compounds with AC50 equal or less than 10 uM are considered active; format: functional; conditions: read-out: AC50
[6] = target: Voltage-dependent T-type calcium channel subunit alpha-1H (Homo sapiens, UniProt O95180); format: functional;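 also: channel activity triggered by adding a high calcium stimulation buffer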
[7] = target: T3, Corticotropin-releasing factor receptor 2/Corticotropin-releasing factor-binding protein (Homo sapiens, UniProt P24387+Q13324); test: activators of CRF receptor 2 with binding protein – uHTS hits, confirmation (AID 602473); format: functional; conditions: read-out: EC50_Mean
T3 sequence (Q13324 whole entry): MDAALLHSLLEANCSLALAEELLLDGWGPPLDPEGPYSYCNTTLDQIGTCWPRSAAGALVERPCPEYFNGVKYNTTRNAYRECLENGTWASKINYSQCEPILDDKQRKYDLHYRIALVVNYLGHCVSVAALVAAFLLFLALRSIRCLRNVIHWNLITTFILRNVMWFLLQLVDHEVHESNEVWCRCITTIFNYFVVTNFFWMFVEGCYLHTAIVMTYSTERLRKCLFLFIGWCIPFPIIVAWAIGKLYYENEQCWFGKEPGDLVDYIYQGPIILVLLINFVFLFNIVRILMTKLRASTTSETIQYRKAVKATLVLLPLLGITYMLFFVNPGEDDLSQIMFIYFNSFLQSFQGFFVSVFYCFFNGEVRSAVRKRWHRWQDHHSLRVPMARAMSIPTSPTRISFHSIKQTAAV
T3 sequence (P24387 whole entry): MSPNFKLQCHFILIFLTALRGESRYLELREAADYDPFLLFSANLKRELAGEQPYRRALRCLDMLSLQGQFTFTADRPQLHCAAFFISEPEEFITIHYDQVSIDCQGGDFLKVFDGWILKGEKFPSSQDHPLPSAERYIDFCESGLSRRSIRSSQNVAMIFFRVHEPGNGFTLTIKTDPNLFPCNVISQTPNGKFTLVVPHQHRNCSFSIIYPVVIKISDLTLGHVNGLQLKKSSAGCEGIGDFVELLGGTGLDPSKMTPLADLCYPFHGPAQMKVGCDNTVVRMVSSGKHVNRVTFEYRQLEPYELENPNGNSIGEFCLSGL

[8] = CRF-BP/CRF-R2 complex antagonists, dose response, cell-based, uHTS hits, 384-well (AID 651639); format: functional, Homo sapiens; conditions: read-out: IC50_Mean
[9] = target: T3, Corticotropin-releasing factor receptor 2/Corticotropin-releasing factor-binding protein; test: Dose Response confirmation of uHTS hits for small molecule antagonists of the CRF-binding protein and CRF-R2 receptor complex.; format: functional; conditions: read-out: IC50_Mean
[10] = target: 72 kDa type IV collagenase (Homo sapiens, UniProt P08253); test: Dose Response validation of uHTS RPN11 inhibitor hits using a MMP-2 Fluorescence assay.; format: functional
[11] = target: Prothrombin (Bos taurus, UniProt P00735); test: thrombin inhibition, dose response, biochemical, fluorescence polarization, uHTS hits (AID 602369); format: functional
[12] = target: 26S proteasome non-ATPase regulatory subunit 14 (Homo sapiens, UniProt O00487); test: inhibition of proteasome subunit RPN11 – biochemical, fluorescence polarization, uHTS hits, confirmation (AID 602368); format: functional
[13] = test system: BJ; test: cells; format: functional, cell-based; conditions: Homo sapiens
[14] = test system: BJ; test: cytotoxicity toward BJ-TERT fibroblasts, dose response, cell-based, RAS-independent, luminescence (AID 1933); format: functional; conditions: Homo sapiens
[15] = target: T4, CAAX prenyl protease 2 (Saccharomyces cerevisiae S288c, UniProt Q03530); format: biochemical
T4 sequence (Q03530 whole entry): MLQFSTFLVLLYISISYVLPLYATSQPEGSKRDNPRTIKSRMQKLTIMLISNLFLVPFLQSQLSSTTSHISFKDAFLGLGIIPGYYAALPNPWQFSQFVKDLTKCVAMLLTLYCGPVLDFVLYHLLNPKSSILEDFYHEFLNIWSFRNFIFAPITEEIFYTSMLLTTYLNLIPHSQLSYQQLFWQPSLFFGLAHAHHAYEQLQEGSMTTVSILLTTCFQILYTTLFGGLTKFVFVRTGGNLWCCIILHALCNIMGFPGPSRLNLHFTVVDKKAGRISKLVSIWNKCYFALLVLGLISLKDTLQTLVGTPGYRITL

[16] = target: Trypsin (Sus scrofa, UniProt P00761); test: porcine trypsin inhibitors, dose response, selectivity assay for Rce1 protease inhibitor project, biochemical, quenched peptide fluorescence, cherry-pick (AID 488789)
[17] = target: T5, Ubiquitin-conjugating enzyme E2 N (Homo sapiens, UniProt P61088); format: functional;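 also: Dose-response confirmation in a TR-FRET assay detecting UBC13-driven polyubiquitin chain formation, inhibition measured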
T5 sequence (P61088 whole entry): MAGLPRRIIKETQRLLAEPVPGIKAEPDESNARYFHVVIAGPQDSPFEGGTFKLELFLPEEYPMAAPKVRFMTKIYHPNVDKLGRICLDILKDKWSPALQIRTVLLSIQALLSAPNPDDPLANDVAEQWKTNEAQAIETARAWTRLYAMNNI

Chain of Genome polyprotein (P29990 2492-3391 limits assumed): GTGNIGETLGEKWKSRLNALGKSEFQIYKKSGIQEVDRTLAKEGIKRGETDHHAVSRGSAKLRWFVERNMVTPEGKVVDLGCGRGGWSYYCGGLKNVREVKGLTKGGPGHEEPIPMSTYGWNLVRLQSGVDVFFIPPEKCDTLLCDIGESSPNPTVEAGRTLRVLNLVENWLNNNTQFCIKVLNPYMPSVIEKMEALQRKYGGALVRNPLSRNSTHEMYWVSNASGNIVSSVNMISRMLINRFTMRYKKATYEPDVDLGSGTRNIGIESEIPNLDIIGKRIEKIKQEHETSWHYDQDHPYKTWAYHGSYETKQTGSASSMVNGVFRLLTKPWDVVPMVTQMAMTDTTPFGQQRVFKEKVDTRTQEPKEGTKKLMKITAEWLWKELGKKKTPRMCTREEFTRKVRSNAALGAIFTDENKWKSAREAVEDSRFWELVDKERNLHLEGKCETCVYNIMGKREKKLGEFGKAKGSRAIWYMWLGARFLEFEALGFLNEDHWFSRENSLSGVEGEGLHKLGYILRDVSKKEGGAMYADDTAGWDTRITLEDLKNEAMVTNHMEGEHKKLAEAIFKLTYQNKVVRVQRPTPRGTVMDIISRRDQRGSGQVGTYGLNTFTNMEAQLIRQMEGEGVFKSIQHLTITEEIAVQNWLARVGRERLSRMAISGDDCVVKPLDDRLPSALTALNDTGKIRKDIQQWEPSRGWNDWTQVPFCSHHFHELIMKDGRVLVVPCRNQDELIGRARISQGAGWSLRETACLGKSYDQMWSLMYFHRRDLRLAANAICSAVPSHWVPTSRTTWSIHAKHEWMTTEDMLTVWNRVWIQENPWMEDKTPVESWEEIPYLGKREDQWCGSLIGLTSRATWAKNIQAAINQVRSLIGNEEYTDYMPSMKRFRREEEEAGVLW
Chain of 26S proteasome non-ATPase regulatory subunit 14 (O00487 whole entry): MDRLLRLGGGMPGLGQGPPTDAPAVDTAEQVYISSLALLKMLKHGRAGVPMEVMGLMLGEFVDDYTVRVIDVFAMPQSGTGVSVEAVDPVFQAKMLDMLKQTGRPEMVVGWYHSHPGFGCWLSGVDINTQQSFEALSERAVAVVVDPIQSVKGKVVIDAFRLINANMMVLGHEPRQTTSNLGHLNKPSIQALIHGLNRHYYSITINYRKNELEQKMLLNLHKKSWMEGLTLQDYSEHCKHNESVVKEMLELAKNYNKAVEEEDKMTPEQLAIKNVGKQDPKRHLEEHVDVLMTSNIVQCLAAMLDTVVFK
Chain of 72 kDa type IV collagenase (P08253 whole entry): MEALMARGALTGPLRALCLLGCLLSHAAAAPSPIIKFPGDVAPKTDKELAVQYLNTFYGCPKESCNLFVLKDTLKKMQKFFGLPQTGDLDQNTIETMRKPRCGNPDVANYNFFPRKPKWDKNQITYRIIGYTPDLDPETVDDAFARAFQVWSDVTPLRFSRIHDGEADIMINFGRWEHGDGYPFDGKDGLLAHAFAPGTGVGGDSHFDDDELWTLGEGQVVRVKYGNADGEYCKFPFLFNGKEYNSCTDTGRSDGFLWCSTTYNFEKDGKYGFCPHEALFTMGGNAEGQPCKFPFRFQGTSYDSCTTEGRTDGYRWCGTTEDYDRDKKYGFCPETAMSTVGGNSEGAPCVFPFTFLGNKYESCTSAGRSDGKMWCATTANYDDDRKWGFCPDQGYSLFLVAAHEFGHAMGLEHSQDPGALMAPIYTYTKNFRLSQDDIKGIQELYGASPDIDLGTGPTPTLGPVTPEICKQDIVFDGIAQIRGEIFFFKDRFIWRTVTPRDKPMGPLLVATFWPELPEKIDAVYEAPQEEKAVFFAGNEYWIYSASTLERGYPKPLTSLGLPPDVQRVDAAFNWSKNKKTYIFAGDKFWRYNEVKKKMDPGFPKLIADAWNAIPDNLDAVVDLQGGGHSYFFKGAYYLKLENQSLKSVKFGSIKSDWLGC
Chain of Voltage-dependent T-type calcium channel subunit alpha-1H (O95180 whole entry): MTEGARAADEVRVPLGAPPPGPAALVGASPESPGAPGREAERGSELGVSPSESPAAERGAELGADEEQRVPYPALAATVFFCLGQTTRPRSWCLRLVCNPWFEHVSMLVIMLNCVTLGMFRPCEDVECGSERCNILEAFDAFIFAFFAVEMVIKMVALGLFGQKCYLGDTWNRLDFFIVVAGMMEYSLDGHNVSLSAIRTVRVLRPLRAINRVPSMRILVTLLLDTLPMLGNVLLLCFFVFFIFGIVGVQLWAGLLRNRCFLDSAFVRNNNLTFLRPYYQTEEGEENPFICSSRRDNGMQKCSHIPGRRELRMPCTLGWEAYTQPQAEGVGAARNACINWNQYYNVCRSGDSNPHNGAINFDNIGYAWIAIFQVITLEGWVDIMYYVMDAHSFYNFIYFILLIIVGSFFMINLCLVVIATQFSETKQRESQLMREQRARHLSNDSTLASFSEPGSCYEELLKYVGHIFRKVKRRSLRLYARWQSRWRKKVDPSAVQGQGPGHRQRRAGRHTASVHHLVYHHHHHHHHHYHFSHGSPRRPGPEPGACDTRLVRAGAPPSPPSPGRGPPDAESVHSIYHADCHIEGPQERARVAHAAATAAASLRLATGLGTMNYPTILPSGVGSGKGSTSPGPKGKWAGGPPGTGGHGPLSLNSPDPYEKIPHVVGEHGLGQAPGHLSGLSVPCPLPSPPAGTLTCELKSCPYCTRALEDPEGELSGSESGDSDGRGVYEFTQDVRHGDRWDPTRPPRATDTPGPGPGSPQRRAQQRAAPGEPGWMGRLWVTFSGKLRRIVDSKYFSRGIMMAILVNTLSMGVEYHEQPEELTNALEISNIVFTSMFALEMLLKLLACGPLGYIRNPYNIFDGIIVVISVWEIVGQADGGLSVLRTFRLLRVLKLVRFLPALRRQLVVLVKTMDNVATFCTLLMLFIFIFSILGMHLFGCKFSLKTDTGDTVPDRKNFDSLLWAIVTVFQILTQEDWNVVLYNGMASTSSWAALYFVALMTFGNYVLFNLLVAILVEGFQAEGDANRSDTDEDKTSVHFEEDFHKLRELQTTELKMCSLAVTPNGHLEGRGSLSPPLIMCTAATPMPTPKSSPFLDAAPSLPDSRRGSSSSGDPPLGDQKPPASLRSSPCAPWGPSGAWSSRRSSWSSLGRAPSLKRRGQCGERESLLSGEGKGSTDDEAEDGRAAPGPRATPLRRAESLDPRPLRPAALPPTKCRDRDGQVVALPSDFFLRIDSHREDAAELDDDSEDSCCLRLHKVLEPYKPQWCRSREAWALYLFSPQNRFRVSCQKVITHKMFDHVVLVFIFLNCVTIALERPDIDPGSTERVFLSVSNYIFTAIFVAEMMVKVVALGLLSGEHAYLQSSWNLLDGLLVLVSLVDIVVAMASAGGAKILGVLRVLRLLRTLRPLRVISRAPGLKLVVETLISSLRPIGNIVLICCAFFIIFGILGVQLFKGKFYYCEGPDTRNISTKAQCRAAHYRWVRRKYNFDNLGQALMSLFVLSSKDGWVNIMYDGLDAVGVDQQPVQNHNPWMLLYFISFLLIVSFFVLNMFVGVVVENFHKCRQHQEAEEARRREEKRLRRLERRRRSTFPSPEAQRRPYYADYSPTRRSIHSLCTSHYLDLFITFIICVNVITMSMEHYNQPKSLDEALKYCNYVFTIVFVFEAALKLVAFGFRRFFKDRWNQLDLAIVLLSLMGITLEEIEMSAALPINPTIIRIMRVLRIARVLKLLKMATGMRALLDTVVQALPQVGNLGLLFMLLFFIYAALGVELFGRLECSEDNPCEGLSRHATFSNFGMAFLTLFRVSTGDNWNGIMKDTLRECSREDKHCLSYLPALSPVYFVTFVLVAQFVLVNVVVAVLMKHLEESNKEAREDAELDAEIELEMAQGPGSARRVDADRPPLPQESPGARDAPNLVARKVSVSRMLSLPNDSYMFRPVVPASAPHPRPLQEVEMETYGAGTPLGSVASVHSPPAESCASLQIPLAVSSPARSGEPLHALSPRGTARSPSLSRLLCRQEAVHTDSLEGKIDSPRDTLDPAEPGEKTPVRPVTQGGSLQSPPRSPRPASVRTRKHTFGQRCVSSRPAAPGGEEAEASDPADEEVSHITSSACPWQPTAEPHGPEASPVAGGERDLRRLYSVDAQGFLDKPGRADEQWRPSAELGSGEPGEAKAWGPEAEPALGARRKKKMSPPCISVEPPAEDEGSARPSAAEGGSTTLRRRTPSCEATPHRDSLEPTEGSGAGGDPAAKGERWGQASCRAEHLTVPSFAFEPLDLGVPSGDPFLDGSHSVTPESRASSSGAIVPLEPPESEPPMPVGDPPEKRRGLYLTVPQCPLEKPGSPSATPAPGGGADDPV
Chain of Cytochrome P450 2C19 (P33261 whole entry): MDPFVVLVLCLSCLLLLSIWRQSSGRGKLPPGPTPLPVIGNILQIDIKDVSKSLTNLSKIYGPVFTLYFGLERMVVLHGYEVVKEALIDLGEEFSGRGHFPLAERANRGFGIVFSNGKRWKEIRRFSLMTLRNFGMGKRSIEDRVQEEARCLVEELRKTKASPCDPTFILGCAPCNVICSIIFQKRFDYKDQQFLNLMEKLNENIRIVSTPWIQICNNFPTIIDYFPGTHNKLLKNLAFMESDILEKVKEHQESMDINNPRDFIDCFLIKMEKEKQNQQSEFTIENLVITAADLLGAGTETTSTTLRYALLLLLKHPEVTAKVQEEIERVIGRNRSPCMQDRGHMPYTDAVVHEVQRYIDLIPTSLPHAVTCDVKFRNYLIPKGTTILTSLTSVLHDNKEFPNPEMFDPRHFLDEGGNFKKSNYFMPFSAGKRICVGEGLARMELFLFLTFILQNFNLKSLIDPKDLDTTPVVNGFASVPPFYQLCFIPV
Chain of Trypsin (P00761 whole entry): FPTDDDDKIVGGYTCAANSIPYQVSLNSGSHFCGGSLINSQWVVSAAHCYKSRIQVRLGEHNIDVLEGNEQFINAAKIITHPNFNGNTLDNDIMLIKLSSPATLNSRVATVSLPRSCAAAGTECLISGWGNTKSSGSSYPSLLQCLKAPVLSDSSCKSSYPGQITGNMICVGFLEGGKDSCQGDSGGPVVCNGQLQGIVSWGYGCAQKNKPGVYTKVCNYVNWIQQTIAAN

With `C=CCNc1nc(-c2cccc(OC)c2O)nc2ccccc12` the IC50 [1] was > 50 µM (not active).
For `CCc1cccc(CC)c1NC(=O)COC(=O)/C(C#N)=C/c1ccc(OC)cc1`, the EC50 [2] was > 99 µM (inactive) and the EC50 [3] was > 99 µM (inactive).
With `O=C1NN(c2ccccc2)C(=O)/C1=C\c1cccc(OC(=O)c2cccs2)c1` the IC50 [4] was 21.2 µM (active).
For `CCOC(=O)c1c(NC(=O)Nc2ccc(C)cc2)sc2c1CCN(C)C2`, the EC50 [2] was > 99 µM (inactive) and the EC50 [3] was > 99 µM (inactive).
In the case of `CC(NC(=O)CCSc1nc(-c2ccc3c(c2)OCO3)cc(C(F)(F)F)n1)c1ccccc1` (centres undefined), the AC50 [5] is reported as 0.398 µM (inconclusive), the EC50 [6] is reported as 7.03 µM (active) and the IC50 [1] is reported as > 50 µM (not active).
In the case of `COc1cccc(NC(=S)NC(Cc2ccccc2)c2ccccc2)c1` (centres undefined), the EC50 [7] is reported as > 53 µM (inactive), the IC50 [8] is reported as 2.73 µM (active) and the IC50 [9] is reported as 3.35 µM (active).
In the case of `Cc1ccc(CO/N=C\Cc2snc(Sc3ncc(C(F)(F)F)cc3Cl)c2C#N)cc1`, the IC50 [10] is reported as > 100 µM (inactive), the IC50 [11] is reported as 54.2 µM (active) and the IC50 [12] is reported as 14.6 µM (active).
For `Cc1ccc(Nc2nc(N)nc(-c3oc4ccccc4c3C)n2)cc1`, the EC50 [13] was 0.228 µM (active) and the EC50 [14] was < 0.12 µM (active).
In the case of `Cc1cc(OCC(=O)N2CCC(C(=O)O)CC2)c2c(C)cc(=O)oc2c1`, the AC50 [15] is reported as 15.6 µM (active) and the AC50 [16] is reported as 21.7 µM (active).
With `C=CCn1c(SCc2c(C)noc2C)nc2sc(C)c(C)c2c1=O` the EC50 [7] was > 53 µM (inactive), the IC50 [8] was > 20 µM (inactive) and the IC50 [9] was < 0.368 µM (active).
In the case of `CC(C)n1ncc2c(C(=O)Nc3ccc(S(N)(=O)=O)cc3)cc(C3CC3)nc21`, the IC50 [17] is reported as > 20 µM (inactive), the IC50 [10] is reported as > 100 µM (inactive) and the IC50 [11] is reported as 73.6 µM (active). For the same molecule, the IC50 [12] was 6.85 µM (active).
With `C#CCOc1c(Br)cc(/C=C2/C(=O)ON=C2C)cc1OC` the IC50 [4] was > 100 µM (active).
For `Cc1ccc(/C=C2/C(=O)NC(=O)N(CC3CCCO3)C2=O)s1` (centres undefined), the IC50 [4] was > 100 µM (active).
For `O=C(O)c1ccc2c(c1)C(=O)N(c1ccc(/C=C/C(=O)c3ccccc3)cc1)C2=O`, the IC50 [4] was 56.7 µM (active).
